Converted amounts (≈) assume the structure as drawn.

These results are taken from article PMC9533837 (Antiviral Research, 2003).

The test system of test [1] is VAR isolate Butler. Description: organism not typed. The test is classed as cell-based, variola minor. As to conditions: Vero, read-out: IC50, VAR isolate Butler.
For test [2], the system named is VAR-BSH (1975 Bangladesh isolate of VAR major). The test can be described thus: organism not typed. As to conditions: for IC50: LLC-MK2, read-out: IC50 VAR-BSH LLC-MK2. The test is classed as cell-based, variola major.
Test [3] concerns VAC, including recombinant VAC. Conditions: mouse, in vivo; cited from earlier work.
The test system of test [4] is VAR isolate Hinden. The test can be described thus: organism not typed. The test is classed as cell-based, variola. As to conditions: Vero, read-out: IC50, VAR isolate Hinden.
Test [5] deals with VAR isolate V73-225. The test can be described thus: organism not typed. The test is classed as cell-based, variola. Conditions: Vero, read-out: IC50, VAR isolate V73-225.
The test system of test [6] is VAR isolate Heidelberg. The test can be described thus: organism not typed. The format is cell-based, variola. Conditions: Vero, read-out: IC50, VAR isolate Heidelberg.
The test system of test [7] is VAC Copenhagen. Description: microbe, parasite or virus in culture. The format is cell-based, vaccinia virus. As to conditions: for IC50: Orthopoxvirus vaccinia, Vero, read-out: IC50 VAC Vero.
In test [8] the test system is VAR isolate Juba. The test can be described thus: organism not typed. The test is classed as cell-based, variola. As to conditions: Vero, read-out: IC50, VAR isolate Juba.
Test [9] has as its system VAR isolate Kali-Muthu. Description: organism not typed. The test is classed as cell-based, variola. Conditions: Vero, read-out: IC50, VAR isolate Kali-Muthu.
The test system of test [10] is VAR isolate Rumbec. Description: organism not typed. The test is classed as cell-based, variola. As to conditions: Vero, read-out: IC50, VAR isolate Rumbec.
For test [11], the system named is VAC. Conditions: cited from earlier work.

By IC50 is commonly meant the concentration needed to halve the response being measured. As to `NC(=O)c1ncn([C@@H]2O[C@H](CO)[C@@H](O)[C@H]2O)n1` [Ribavirin], the IC50 in test [1] was 28 µg/mL (≈ 115 µM); in test [2], 2.1 µg/mL (≈ 8.6 µM); in test [4], 33 µg/mL (≈ 135 µM); in [5], 26 µg/mL (≈ 106 µM); in [6], 43 µg/mL (≈ 176 µM); in test [7] it was > 100 µg/mL. In addition, in test [2], the “Therapeutic index (TI) VAR-BSH LLC-MK2” value is on record as 47.6. In addition, the “activity in murine tailpox models” value in [3] is given as “active”. For the same compound, in test [7], the “Therapeutic index (TI) VAC Vero” value came out at 1.0.
`Nc1ccn(C[C@@H](CO)OCP(=O)(O)O)c(=O)n1` [Cidofovir, 1-[(S)-3-hydroxy-2-(phosphonomethoxy)-propyl]cytosine]: the IC50 is 14 µg/mL (≈ 50.1 µM) in [8]; 11 µg/mL (≈ 39.4 µM) in test [9]; 6 µg/mL (≈ 21.5 µM) in test [1]; 3.2 µg/mL (≈ 11.5 µM) in [2]; 10 µg/mL (≈ 35.8 µM) in [4]; 10 µg/mL (≈ 35.8 µM) in [10]. In addition, the IC50 in test [5] was 5 µg/mL (≈ 17.9 µM); in [6], 15 µg/mL (≈ 53.7 µM); in [7], 8.1 µg/mL (≈ 29 µM). In addition, the “Therapeutic index (TI) VAR-BSH LLC-MK2” value in test [2] is reported as 31.3. The “activity in vivo, VAC mouse model” value in [11] is recorded as “active in vivo”. For the same compound, the “Therapeutic index (TI) VAC Vero” value in [7] worked out at 12.3.
